The data set is described as follows: Storage stability of amrubicin hydrochloride compositions: rates of by-product generation of degradation products. Format: physicochemical. How it is done: Various compositions of amrubicin hydrochloride composed of about 91 to about 98% by weight of amrubicin hydrochloride and about 2 to about 9% by weight of water were prepared by exposing dried amrubicin hydrochloride to air whose relative humidity was adjusted (0 to 95%).
The thus-prepared amrubicin hydrochloride compositions having water contents of about 2 to about 9% by weight were stored at 30° C. and investigated rates of by-product generation of the degradation products, i.e., the desaccharification and deamination products.
The relative humidity was adjusted by reference to “Kobunshi Jikken-gaku Koza (Polymer Experiment Course) 5, Kobunshi no Bussei (Physical Properties of Polymers), 100-107 pages (Kyoritsu Shuppan Kabushiki Kaisha)”.

Where [1] appears, read: according to the decrease in water content.
The mark [2] stands for this setting: according to the increase in water content.

Each structure is given as a SMILES string.

On to `CC(=O)[C@]1(N)Cc2c(O)c3c(c(O)c2[C@@H](O[C@H]2C[C@H](O)[C@H](O)CO2)C1)C(=O)c1ccccc1C3=O.Cl` [amrubicin hydrochloride, (7S,9S)-9-Acetyl-9-amino-7-[(2-deoxy-β-D-erythro-pentapyranosyl)oxy]-7,8,9,10-tetrahydro-6,11-dihydroxy-5,12-nephthacenedione hydrochloride], for which the “by-product generation rate of the deamination product” value under setting [1] is given as “decreased” and the “by-product generation rate of the deamination product” value under setting [2] is given as “increased”. For the same molecule, the “by-product generation rate of the desaccharification product” value under setting [1] is on record as “increased” and the “by-product generation rate of the desaccharification product” value under setting [2] was “decreased”. For the same molecule, the “by-product generation of both desaccharification and deamination products” value reads like this: (stored at 30° C. under an atmosphere at 5 to 90% relative humidity (FIG. 1)) “can be suppressed”; (stored at 30° C., water content in composition controlled at 3 to 8% by weight (FIG. 2)) “can be suppressed”.

The values are drawn from patent US8030283B2, “Stabilization of amrubicin hydrochloride” (Dainippon Sumitomo Pharma Co., Ltd., priority 2001, dated 2011).
